According to patent publication US6410533B1, “Antibacterial compounds” (Genzyme Corporation, priority 2000, dated 2002):
Converted amounts (≈) assume the structure as drawn. Like-named read-outs stand apart in the source and are kept apart here.

Key:
[1] = tested on: methicillin-resistant Staphylococcus aureus (ATCC 33591); assay: In vivo mouse intraperitoneal infection, mortality and % survivors over 7 days; conditions: 1 and 5 h post inoculation, MRSA ATCC 33591 i.p., ICR mice
Protocol: Ten male ICR mice weighing 20 grams were inoculated intraperitoneally with an LD90-100 dose (2-3×10^7 CFU/mouse) of methicillin-resistant Staphylococcus aureus (ATCC 33591) in brain-heart infusion broth containing 5% mucin. Compounds were suspended in a vehicle containing 1% cremophore EL (Sigma) in normal saline and were administered subcutaneously in a volume of 0.4 ml per mouse either 1 hour following bacterial inoculation or 1 and 5 hours post inoculation. Animals receiving two doses of drug were injected subcutaneously in the hindquarter one hour post-innoculation and in the neck area, 5 hours post-innoculation. Deaths occurring during the subsequent 7 days are recorded. Mortality and % survivor endpoints are calculated.

[2] = tested on: Staphylococcus aureus bacteria (ATCC 9604 SV); assay: Minimal inhibitory concentration (MIC), broth microdilution; type: cell-based; conditions: 24 h at 37° C.
Protocol: Minimal inhibitory concentrations (MICs) for Staphylococcus aureus bacteria (ATCC 9604 SV) were determined by broth microdilution methodology following National Committee for Clinical Laboratory Standards. In the MIC determinations, the compounds were incorporated into Mueller-Hinton broth (Becton Dickinson Microbiology systems, Cockeyville, Md.) at a series of concentrations. After the test organism was grown overnight in TB broth, the broths were adjusted to the turbidity equivalent to 0.05 McFarland standard. The suspensions were diluted twenty-fold into the broth containing the compounds. […] In the IC50 determination, the method was modified to allow the rapid growth of the organisms. The inoculum suspensions were adjusted to 0.1 McFarland standard and then diluted two-fold into the wells containing TB broth and the compounds. After three to five hours incubation at 37° C., the turbidity was measured at 550 nm and inhibitory activity was defined as the concentration of antimicrobial agent that inhibits 50% growth of the organism in the microdilution wells.

[3] = Staphylococcus aureus ATCC 9604 SV

Compound | In Vivo, double dose (% of mice rescued) ([1]; 2 × 2 mg/kg s.c.) [% @ 2 × 2 mg/kg] | In Vivo, double dose (% of mice rescued) ([1]; 2 × 20 mg/kg s.c.) [% @ 2 × 20 mg/kg] | MIC [2, 3] [µg/mL] | MIC ([2]; ATCC9604, Staphylococcus aureus ATCC 9604 SV, read-out: MIC) [µg/mL]
O=C1Nc2ccccc2C1=C1C(=O)N(c2cc(Cl)cc(Cl)c2)N=C1c1ccccc1 [Compound 42] | 0 | 0 | 1.20 (≈ 2.76 µM) | 
O=C(O)C=C1C(=O)N(c2cc(Cl)cc(Cl)c2)N=C1c1ccccc1 [Compound 46] | 0 | 0 | 1.50 (≈ 4.15 µM) | 
COc1ccc(C(=O)C2C(=O)N(c3cc(Cl)cc(Cl)c3)N=C2c2ccccc2)cc1 (stereo not drawn) [Compound 49] | 0 | 25 | 10.0 (≈ 22.8 µM) | 
O=C(c1ccccn1)C1C(=O)N(c2cc(Cl)cc(Cl)c2)N=C1c1ccccc1 (stereo not drawn) [Compound 50, 2-(3,5-Dichloro-phenyl)-5-phenyl-4-(pyridine-2-carbonyl)-2,4-dihydro-pyrazol-3-one] | 0 | 0 |  | 10.3 (≈ 25.1 µM)
O=C(O)c1cccc(C=C2C(=O)N(c3cc(Cl)cc(Cl)c3)N=C2c2ccccc2)c1 [Compound 51] | 25 | 25 | 1.31 (≈ 3 µM) | 
O=C(O)c1ccc(C=C2C(=O)N(c3cc(Cl)cc(Cl)c3)N=C2c2ccccc2)cc1 [Compound 52] | 0 | 0 | 0.656 (≈ 1.5 µM) | 
CCC1=NN(c2cc(Cl)cc(Cl)c2)C(=O)C1=Cc1cccnc1 [Compound 54] | 0 | 12.5 | 0.750 (≈ 2.17 µM) | 
CCC1=NN(c2cc(Cl)cc(Cl)c2)C(=O)C1=Cc1ccco1 [Compound 55] | 0 | 25 | 1.50 (≈ 4.48 µM) | 
CCC1=NN(c2cc(Cl)cc(Cl)c2)C(=O)C1=C1C(=O)Nc2ccccc21 [Compound 56] | 0 | 0 | 1.50 (≈ 3.88 µM) | 
CCC1=NN(c2cc(Cl)cc(Cl)c2)C(=O)C1=CC(=O)O [Compound 57] | 0 | 0 | 6.25 (≈ 20 µM) | 
CCC1=NN(c2cc(Cl)cc(Cl)c2)C(=O)C1=Cc1cccc(C(=O)O)c1 [Compound 58] | 25 | 12.5 | 6.25 (≈ 16.1 µM) | 
CCC1=NN(c2cc(Cl)cc(Cl)c2)C(=O)C1=Cc1ccc(C(=O)O)cc1 [Compound 59] | 12.5 | 12.5 | 0.400 (≈ 1.03 µM) | 
O=C1CC(Cc2ccccc2)=NN1c1cc(Cl)cc(Cl)c1 [Compound 65] | 0 | 0 | 0.958 (≈ 3 µM) | 
O=C1C(CCc2ccccn2)C(c2ccccc2)=NN1c1cc(Cl)cc(Cl)c1 (stereo not drawn) [Compound 66] | 25 | 0 | 5.13 (≈ 12.5 µM) | 
CC(C)(C)c1csc(NC(=O)NCc2cccc(Cl)c2)n1 [Compound 172] | 12.5 | 25 | 8.10 (≈ 25 µM) | 
O=C(NCc1cccc(Cl)c1)Nc1nc(C2CCCC2)cs1 [Compound 173] | 25 | 25 | 8.40 (≈ 25 µM) | 
